Measured values published in patent US20220081412A1, “QUINOLINYL-PYRAZINE-CARBOXAMIDE COMPOUNDS AND USES THEREOF” (The Regents of the University of Michigan, priority 2018, published 2022).

Test system: MIA PaCa-2 cells
Assay: Bru-seq analysis for nascent RNA synthesis (log2FC of genes, GSEA gene sets)
Type: cell-based, human
Details: 4 h
[1] = GO_NUCLEAR_NUCLEOSOME, upregulated
[2] = GO_ORGANIC_HYDROXY_COMPOUND_BIOSYNTHETIC_PROCESS, upregulated
[3] = GO_PROTEIN_DNA_COMPLEX, upregulated
[4] = GO_REGULATION_OF_ENDOPLASMIC_RETICULUM_STRESS_INDUCED_INTRINSIC_APOPTOTIC_SIGNALING_PATHWAY, upregulated
[5] = GO_REGULATION_OF_STEROID_BIOSYNTHETIC_PROCESS, upregulated
[6] = GO_REGULATION_OF_STEROID_METABOLIC_PROCESS, upregulated
[7] = GO_RIBOSOMAL_SUBUNIT, upregulated
[8] = GO_STEROID_BIOSYNTHETIC_PROCESS, upregulated
[9] = GO_STEROID_METABOLIC_PROCESS, upregulated
[10] = GO_STEROL_BIOSYNTHETIC_PROCESS, upregulated
[11] = GO_STEROL_METABOLIC_PROCESS, upregulated
[12] = GO_STRUCTURAL_CONSTITUENT_OF_RIBOSOME, upregulated
[13] = HAMAI_APOPTOSIS_VIA_TRAIL_UP, C2, downregulated
[14] = HUTTMANN_B_CLL_POOR_SURVIVAL_DN, C2, downregulated
[15] = KEGG_ACUTE_MYELOID_LEUKEMIA, upregulated
[16] = KEGG_ADIPOCYTOKINE_SIGNALING_PATHWAY, upregulated
[17] = KEGG_BIOSYNTHESIS_OF_UNSATURATED_FATTY_ACIDS, upregulated
[18] = KEGG_CARDIAC_MUSCLE_CONTRACTION, upregulated
[19] = KEGG_ENDOMETRIAL_CANCER, upregulated
[20] = KEGG_FC_EPSILON_RI_SIGNALING_PATHWAY, upregulated
[21] = KEGG_GLYCOLYSIS_GLUCONEOGENESIS, upregulated
[22] = KEGG_INSULIN_SIGNALING_PATHWAY, upregulated
[23] = KEGG_LONG_TERM_DEPRESSION, upregulated
[24] = KEGG_MTOR_SIGNALING_PATHWAY, upregulated
[25] = KEGG_NON_SMALL_CELL_LUNG_CANCER, upregulated
[26] = KEGG_OXIDATIVE_PHOSPHORYLATION, upregulated
[27] = KEGG_PARKINSONS_DISEASE, upregulated
[28] = KEGG_PORPHYRIN_AND_CHLOROPHYLL_METABOLISM, upregulated
[29] = KEGG_PPAR_SIGNALING_PATHWAY, upregulated
[30] = KEGG_PROGESTERONE_MEDIATED_OOCYTE_MATURATION, upregulated
[31] = KEGG_PROSTATE_CANCER, upregulated
[32] = KEGG_RENAL_CELL_CARCINOMA, upregulated
[33] = KEGG_SNARE_INTERACTIONS_IN_VESICULAR_TRANSPORT, upregulated
[34] = KEGG_SYSTEMIC_LUPUS_ERYTHEMATOSUS, upregulated
[35] = KEGG_VEGF_SIGNALING_PATHWAY, upregulated
[36] = KRCTCNNNNMANAGC_UNKNOWN, TFBT, upregulated
[37] = MILI_PSEUDOPODIA_HAPTOTAXIS_UP, C2, downregulated
[38] = NIKOLSKY_BREAST_CANCER_8Q12_Q22_AMPLICON, C2, downregulated

Cc1cc(NC(=O)c2cnc(N3CCNCC3)cn2)c2ncccc2c1 [J28, N-(6-methylquinolin-8-yl)-5-(piperazin-1-yl)pyrazine-2-carboxamide]
ES [1]: 0.745 | NES [1]: 2.088 | ES [2]: 0.503 | NES [2]: 1.959 | ES [3]: 0.554 | NES [3]: 2.251 | ES [4]: 0.678 | NES [4]: 2.024 | ES [5]: 0.710 | NES [5]: 2.097 | ES [6]: 0.615 | NES [6]: 2.031 | ES [7]: 0.469 | NES [7]: 1.976 | ES [8]: 0.605 | NES [8]: 2.176 | ES [9]: 0.523 | NES [9]: 2.100 | ES [10]: 0.757 | NES [10]: 2.428 | ES [11]: 0.651 | NES [11]: 2.434 | ES [12]: 0.452 | NES [12]: 1.990 | log2FC (GPR135, downregulated protein-coding gene): −1.08 | log2FC (GRIN2C, downregulated protein-coding gene): −0.95 | ES [13]: −0.508 | NES [13]: −2.848 | ES (HEB_Q6, TFBT, upregulated): 0.415 | NES (HEB_Q6, TFBT, upregulated): 1.688 | log2FC (HRH4, downregulated protein-coding gene): −0.86 | ES [14]: −0.605 | NES [14]: −2.158 | log2FC (IFT80, downregulated protein-coding gene): −1.12 | ES [15]: 0.524 | NES [15]: 1.872 | ES [16]: 0.429 | NES [16]: 1.493 | ES [17]: 0.555 | NES [17]: 1.531 | ES [18]: 0.424 | NES [18]: 1.386 | ES [19]: 0.437 | NES [19]: 1.492 | ES [20]: 0.442 | NES [20]: 1.464 | ES [21]: 0.478 | NES [21]: 1.563 | ES [22]: 0.349 | NES [22]: 1.403 | ES [23]: 0.461 | NES [23]: 1.491 | ES (KEGG_LYSOSOME, upregulated): 0.494 | NES (KEGG_LYSOSOME, upregulated): 1.958 | ES [24]: 0.447 | NES [24]: 1.469 | ES [25]: 0.477 | NES [25]: 1.610 | ES [26]: 0.387 | NES [26]: 1.544 | ES [27]: 0.358 | NES [27]: 1.404 | ES (KEGG_PEROXISOME, upregulated): 0.443 | NES (KEGG_PEROXISOME, upregulated): 1.643 | ES [28]: 0.496 | NES [28]: 1.448 | ES [29]: 0.485 | NES [29]: 1.573 | ES [30]: 0.434 | NES [30]: 1.602 | ES [31]: 0.402 | NES [31]: 1.527 | ES [32]: 0.393 | NES [32]: 1.392 | ES (KEGG_RIBOSOME, upregulated): 0.534 | NES (KEGG_RIBOSOME, upregulated): 2.148 | ES [33]: 0.503 | NES [33]: 1.647 | ES [34]: 0.661 | NES [34]: 2.271 | ES [35]: 0.501 | NES [35]: 1.705 | log2FC (KLF10, downregulated protein-coding gene): −0.88 | ES [36]: 0.784 | NES [36]: 2.441 | log2FC (LINC01337, downregulated noncoding gene): −1.06 | log2FC (LINC01764, downregulated noncoding gene): −1.03 | log2FC (LINC01930, downregulated noncoding gene): −1.08 | log2FC (MALAT1, downregulated noncoding gene): −1.19 | ES (MAZR_01, TFBT, upregulated): 0.380 | NES (MAZR_01, TFBT, upregulated): 1.598 | ES [37]: −0.420 | NES [37]: −2.372 | log2FC (MTND2P28, downregulated noncoding gene): −0.97 | ES (NFE2_01, TFBT, upregulated): 0.387 | NES (NFE2_01, TFBT, upregulated): 1.630 | ES (NFY_Q6_01, TFBT, upregulated): 0.370 | NES (NFY_Q6_01, TFBT, upregulated): 1.617 | ES [38]: −0.499 | NES [38]: −2.099 | ES (NRF2_01, TFBT, upregulated): 0.356 | NES (NRF2_01, TFBT, upregulated): 1.597
